Test results taken from patent US20210403435A1, “HERBICIDAL COMPOUNDS” (SYNGENTA CROP PROTECTION AG, priority 2018, published 2021).
Where a name gives a salt, the structure may show the parent alone.

Tests used:
Assay in all cases: Post-emergence efficacy, glasshouse, evaluated after 13 days
Assay type in all cases: in vivo
[1] = tested on: Digitaria sanguinalis (DIGSA); conditions: Digitaria sanguinalis, 312 h; post-emergence application, 500 g/Ha, evaluated after 13 days; read-out: Control of weed species DIGSA (100=total damage to plant; 0=no damage to plant)
Procedure, shortened: (§1)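 Damage was rated visually 13 days after treatment on a 0–100 scale, where 100 meant total damage. Plants had been raised for 14 days in soil under glasshouse conditions (24/16 °C, 14 h light, 65% humidity) before spraying with an aqueous dilution of an IF50-based formulation.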

Eleusine indica (ELEIN) = conditions: Eleusine indica, 312 h; post-emergence application, 500 g/Ha, evaluated after 13 days; read-out: Control of weed species ELEIN (100=total damage to plant; 0=no damage to plant)
Procedure, shortened: as §1

Lolium perenne (LOLPE) = conditions: Lolium perenne, 312 h; post-emergence application, 500 g/Ha, evaluated after 13 days; read-out: Control of weed species LOLPE (100=total damage to plant; 0=no damage to plant)
Procedure, shortened: as §1

[2] = tested on: Euphorbia heterophylla (EPHHL); conditions: Euphorbia heterophylla, 312 h; post-emergence application, 500 g/Ha, evaluated after 13 days; read-out: Control of weed species EPHHL (100=total damage to plant; 0=no damage to plant)
Procedure, shortened: as §1

[3] = tested on: Amaranthus palmeri (AMAPA); conditions: Amaranthus palmeri, 312 h; post-emergence application, 500 g/Ha, evaluated after 13 days; read-out: Control of weed species AMAPA (100=total damage to plant; 0=no damage to plant)
Procedure, shortened: as §1

[4] = tested on: Echinochloa crus-galli (ECHCG); conditions: Echinochloa crus-galli, 312 h; post-emergence application, 500 g/Ha, evaluated after 13 days; read-out: Control of weed species ECHCG (100=total damage to plant; 0=no damage to plant)
Procedure, shortened: as §1

[5] = tested on: Chenopodium album (CHEAL); conditions: Chenopodium album, 312 h; post-emergence application, 500 g/Ha, evaluated after 13 days; read-out: Control of weed species CHEAL (100=total damage to plant; 0=no damage to plant)
Procedure, shortened: as §1

[6] = tested on: Ipomoea hederacea (IPOHE); conditions: Ipomoea hederacea, 312 h; post-emergence application, 500 g/Ha, evaluated after 13 days; read-out: Control of weed species IPOHE (100=total damage to plant; 0=no damage to plant)
Procedure, shortened: as §1

Setaria faberi (SETFA) = conditions: Setaria faberi, 312 h; post-emergence application, 500 g/Ha, evaluated after 13 days; read-out: Control of weed species SETFA (100=total damage to plant; 0=no damage to plant)
Procedure, shortened: as §1

SMILES | pest or weed control at 500 g/ha [1] [%] | pest or weed control at 500 g/ha (Eleusine indica (ELEIN)) [%] | pest or weed control at 500 g/ha (Lolium perenne (LOLPE)) [%] | pest or weed control at 500 g/ha [2] [%] | pest or weed control at 500 g/ha [3] [%] | pest or weed control at 500 g/ha [4] [%] | pest or weed control at 500 g/ha [5] [%] | pest or weed control at 500 g/ha [6] [%] | pest or weed control at 500 g/ha (Setaria faberi (SETFA)) [%]
CN(C(=O)c1cc[n+](CCC(=O)O)nc1)c1ccccc1 [Compound A38, 3-[4-[methyl(phenyl)carbamoyl]pyridazin-1-ium-1-yl]propanoic acid trifluoroacetate] | 70 | 60 | 20 | 80 | 100 | 60 | 90 | 40 | 90
CNC(=O)c1cn[n+](CCS(=O)(=O)[O-])cc1-c1ccccc1 [Compound A39] | 40 | 50 | 10 | 50 | 70 | 40 | 70 | 20 | 30
COCCNC(=O)c1cc[n+](CCC(=O)O)nc1 [Compound A40] | 100 | 100 | 70 | 100 | 100 | 90 | 90 | 60 | 100
O=C(O)CC[n+]1ccc(C(=O)Nc2ccon2)cn1 [Compound A41] | 70 | 60 | 10 | 90 | 80 | 50 | 90 | 20 | 90
COC(=O)CC[n+]1ccc(C(=O)Nc2nccs2)cn1 [Compound A42] | 10 | 10 | 10 | 60 | 20 | 10 | 40 | 10 | 10
CCNC(=O)c1cc[n+](CCC(=O)O)nc1 [Compound A43] | 100 | 100 | 50 | 100 | 100 | 60 | 90 | 70 | 100
O=C(O)CC[n+]1ccc(C(=O)NCCO)cn1 [Compound A44] | 100 | 30 | 30 | 100 | 100 | 90 | 100 | 100 | 100
CCCNC(=O)c1cc[n+](CCC(=O)O)nc1 [Compound A46] | 90 | 10 | 20 | 100 | 50 | 80 | 70 | 40 | 100
O=C(O)CC[n+]1ccc(C(=O)NCC(F)(F)F)cn1 [Compound A47] | 100 | 20 | 30 | 100 | 100 | 100 | 90 | 90 | 90
CCCCNC(=O)c1cc[n+](CCS(=O)(=O)[O-])nc1 [Compound A50] | 60 | 10 | 20 | 40 | 60 | 40 | 70 | 60 | 60
